Measurements published in patent US20250042879A1, “HETEROCYCLIC SUBSTITUTED 1,3,4-THIADIAZOLE AND PYRIDAZINE COMPOUNDS AND METHODS OF USING THE SAME” (Rgenta Therapeutics, Inc., priority 2021, published 2025).
Where a name gives a salt, the structure may show the parent alone.

What follows are compounds tested on HTT (assay: Mini-gene reporter assay-HTT (firefly luciferase, exon inclusion)). Details: HTT Minigene, 5 μM; read-out: % Efficacy at 5 μM.
Format: cell-based
Source text: Mini-gene reporter constructs for each target site were constructed by first PCR amplifying the region-of-interest including the sequence of the alternatively skipped, sequences of the immediate upstream and downstream introns, and sequences of the immediate upstream and downstream exons. Then the 3′end of the amplified sequence was ligated to a firefly luciferase reporter gene and cloned into the pcDNA3.1 vector backbone. The final reporter construct was transiently transfected into HEK293 cells using Lipofectamine 3000 transfection reagents. Compounds that can induce the inclusion of the skipped exon in the reporter construct would increase the reporter firefly luciferase activity.
Test compounds were diluted in duplicates and dispensed into an assay plate. Transient mini-gene reporter cell line stock was resuspended and dispensed into the assay plate. Assay plates were then centrifuged and incubated. A luciferase reagent (e.g. ONE-Glo firefly luciferase reagent from Promega®) was added to the assay plate and the luminescence (RLU) signals recorded. EC50 values were determined by curve fitting in Levenberg-Marquardt algorithm.

Compound	Emax at 5 µM [%]
COc1cc(-c2ccc(-c3ccc(C4CN(C(C)c5ccccn5)C4)nn3)c(O)c2)cc2cn(C)nc12 (stereo not shown) [Compound 138]	25 to 75
Cc1cn2cc(-c3ccc(-c4ccc(C5CN(C(C)Cn6cncn6)C5)nn4)c(O)c3)cc(F)c2n1 (stereo not shown) [Compound 120]	< 25
COc1cc(-c2ccc(-c3ccc(C4CN(CC5CCCOC5)C4)nn3)c(O)c2)cc2cn(C)nc12 (stereo not shown) [Compound 147]	> 750
CCC(C)(CN1CC(c2ccc(-c3ccc(-c4cc(OC)c5nn(C)cc5c4)cc3O)nn2)C1)OC (stereo not shown) [Compound 178]	< 25
COc1ccc(CN2CC(c3ccc(-c4ccc(-c5cc(OC)c6nn(C)cc6c5)cc4O)nn3)C2)cn1 [Compound 153]	< 25
Cc1cn2cc(-c3ccc(-c4ccc(C5CN(Cc6cn(C)cn6)C5)nn4)c(O)c3)cc(F)c2n1 [Compound 100]	25 to 75
COCn1nccc1CN1CC(c2ccc(-c3ccc(-c4cc(F)c5nc(C)cn5c4)cc3O)nn2)C1 [Compound 127]	< 25
COc1cc(-c2ccc(-c3ccc(C4CN(CC5CC=CCC5)C4)nn3)c(O)c2)cc2cn(C)nc12 (stereo not shown) [Compound 131]	> 750
COc1cc(-c2ccc(-c3ccc(C4CN(C5CCN(C6CC6)C5)C4)nn3)c(O)c2)cc2cn(C)nc12 (stereo not shown) [Compound 139]	25 to 75
COC1CC(N2CC(c3ccc(-c4ccc(-c5cc(F)c6nc(C)cn6c5)cc4O)nn3)C2)C1 (stereo not shown) [Compound 103]	25 to 75
Cc1cn2cc(-c3ccc(-c4ccc(C5CN(C(C)CCn6cccn6)C5)nn4)c(O)c3)cc(F)c2n1 (stereo not shown) [Compound 107]	25 to 75
COc1cc(-c2ccc(-c3ccc(C4CN(Cc5ccc(CO)cc5)C4)nn3)c(O)c2)cc2cn(C)nc12 [Compound 181]	25 to 75
COc1cc(-c2ccc(-c3ccc(C4CN(Cc5csnn5)C4)nn3)c(O)c2)cc2cn(C)nc12 [Compound 140]	< 25
Cc1cn2cc(-c3ccc(-c4ccc(C5CN(C6CC7(COC(C)C7)C6)C5)nn4)c(O)c3)cc(F)c2n1 (stereo not shown) [Compound 124]	25 to 75
Cc1cn2cc(-c3ccc(-c4ccc(C5CN(Cc6ccc[nH]c6=O)C5)nn4)c(O)c3)cc(F)c2n1 [Compound 121]	25 to 75
Cc1cn2cc(-c3ccc(-c4ccc(C5CN(C6COCCOC6)C5)nn4)c(O)c3)cc(F)c2n1 [Compound 97]	25 to 75
Cc1cn2cc(-c3ccc(-c4ccc(C5CN(Cc6cn(C(C)C)nn6)C5)nn4)c(O)c3)cc(F)c2n1 [Compound 116]	25 to 75
COc1nn(C)cc1CN1CC(c2ccc(-c3ccc(-c4cc(F)c5nc(C)cn5c4)cc3O)nn2)C1 [Compound 126]	25 to 75
CCn1ccc(CN2CC(c3ccc(-c4ccc(-c5cc(OC)c6nn(C)cc6c5)cc4O)nn3)C2)c1 [Compound 152]	< 25
Cc1cn2cc(-c3ccc(-c4ccc(C5CN(CC6(F)CC6)C5)nn4)c(O)c3)cc(F)c2n1 [Compound 108]	> 750
CCn1cc(CN2CC(c3ccc(-c4ccc(-c5cc(F)c6nc(C)cn6c5)cc4O)nn3)C2)cn1 [Compound 77]	> 750
COc1cc(-c2ccc(-c3ccc(C4CN(Cc5cnc(C)o5)C4)nn3)c(O)c2)cc2cn(C)nc12 [Compound 162]	25 to 75
COc1cc(-c2ccc(-c3ccc(C4CN(CC5CC6CC6C5)C4)nn3)c(O)c2)cc2cn(C)nc12 (stereo not shown) [Compound 185]	25 to 75
Cc1cn2cc(-c3ccc(-c4ccc(C5CN(C6CCSC6)C5)nn4)c(O)c3)cc(F)c2n1 (stereo not shown) [Compound 70]	25 to 75
COc1cc(-c2ccc(-c3ccc(C4CN(Cc5ccc(C)nn5)C4)nn3)c(O)c2)cc2cn(C)nc12 [Compound 180]	25 to 75
COc1cc(-c2ccc(-c3ccc(C4CN(C5CCC(C)C5)C4)nn3)c(O)c2)cc2cn(C)nc12 (stereo not shown) [Compound 135]	25 to 75
COc1cc(-c2ccc(-c3ccc(C4CN(Cc5cccnc5)C4)nn3)c(O)c2)cc2cn(C)nc12 [Compound 130]	25 to 75
Cc1cn2cc(-c3ccc(-c4ccc(C5CN(Cc6cocn6)C5)nn4)c(O)c3)cc(F)c2n1 [Compound 101]	25 to 75
COc1cc(-c2ccc(-c3ccc(C4CN(C5CCOC(C)C5)C4)nn3)c(O)c2)cc2cn(C)nc12 (stereo not shown) [Compound 145]	25 to 75
COc1cc(-c2ccc(-c3ccc(C4CN(CC(C)CCC#N)C4)nn3)c(O)c2)cc2cn(C)nc12 (stereo not shown) [Compound 169]	> 750

Same assay, conditions: Homo sapiens; HTT mini-gene firefly luciferase reporter transiently transfected into HEK293 cells

Compound	EC50 [nM]
CCN1CC(c2ccc(-c3ccc(-c4ccn5nc(C)cc5c4)cc3O)nn2)C1 [Compound 25, 2-[6-(1-ethylazetidin-3-yl)pyridazin-3-yl]-5-{2-methylpyrazolo[1,5-a]pyridin-5-yl}phenol]	≥ 1000
Cc1cc(-c2ccc(-c3ccc(C4CN(C5CCOCC5)C4)nn3)c(O)c2)nc2cn(C)nc12 [Compound 61, 5-{2,7-dimethyl-2H-pyrazolo[4,3-b]pyridin-5-yl}-2-{6-[1-(oxan-4-yl)azetidin-3-yl]pyridazin-3-yl}phenol]	≥ 1000
Cc1cc2cc(-c3ccc(-c4ccc(C5CNC5)nn4)c(O)c3)cc(C)n2n1 [Compound 29, 2-[6-(azetidin-3-yl)pyridazin-3-yl]-5-{2,7-dimethylpyrazolo[1,5-a]pyridin-5-yl}phenol]	500 to 1000
Cc1cn2cc(-c3cc(O)c(-c4ccc(C5CNC5)nn4)c(F)c3)cc(F)c2n1 [Compound 11, 2-[6-(azetidin-3-yl)pyridazin-3-yl]-3-fluoro-5-{8-fluoro-2-methylimidazo[1,2-a]pyridin-6-yl}phenol]	500 to 1000
Cc1cn2cc(-c3ccc(-c4ccc(C5CNC5)nn4)c(O)c3)cc(C(F)(F)F)c2n1 [Compound 5, 2-[6-(azetidin-3-yl)pyridazin-3-yl]-5-[2-methyl-8-(trifluoromethyl)imidazo[1,2-a]pyridin-6-yl]phenol]	50 to 500
Cc1cn2cc(-c3cc(O)c(-c4ccc(C5CNC5)nn4)cc3F)cc(F)c2n1 [Compound 8, 2-[6-(azetidin-3-yl)pyridazin-3-yl]-4-fluoro-5-{8-fluoro-2-methylimidazo[1,2-a]pyridin-6-yl}phenol]	≥ 1000
Cc1cn2cc(-c3ccc(-c4ccc(C5CNC5)nn4)c(O)c3)ccc2n1 [Compound 2, 2-(6-(azetidin-3-yl)pyridazin-3-yl)-5-(2-methylimidazo[1,2-a]pyridin-6-yl)phenol]	50 to 500
CCOc1cc(-c2ccc(-c3ccc(C4CN(C5CCOCC5)C4)nn3)c(O)c2)cc2cn(C)nc12 [Compound 54, 5-(7-ethoxy-2-methyl-2H-indazol-5-yl)-2-{6-[1-(oxan-4-yl)azetidin-3-yl]pyridazin-3-yl}phenol]	≥ 1000
CCN1CC(c2ccc(-c3ccc(-c4cc(OC)c5nn(C)cc5n4)cc3O)nn2)C1 [Compound 66, 2-(6-(1-ethylazetidin-3-yl)pyridazin-3-yl)-5-(7-methoxy-2-methyl-2H-pyrazolo[4,3-b]pyridin-5-yl)phenol hydrochloride]	≥ 1000
Cc1cc2cc(-c3ccc(-c4ccc(C5CN(C)C5)nn4)c(O)c3)cc(C)n2n1 [Compound 40, 5-{2,7-dimethylpyrazolo[1,5-a]pyridin-5-yl}-2-[6-(1-methylazetidin-3-yl)pyridazin-3-yl]phenol]	500 to 1000
Cc1cn2cc(-c3ccc(-c4ccc(C5CN(C)C5)nn4)c(O)c3)ccc2n1 [Compound 14, 2-[6-(1-methylazetidin-3-yl)pyridazin-3-yl]-5-{2-methylimidazo[1,2-a]pyridin-6-yl}phenol]	500 to 1000
Cc1cc2cc(-c3ccc(-c4ccc(C5CNC5)nn4)c(O)c3)ccn2n1 [Compound 13, 2-[6-(azetidin-3-yl)pyridazin-3-yl]-5-{2-methylpyrazolo[1,5-a]pyridin-5-yl}phenol]	≥ 1000
CCN1CC(c2ccc(-c3ccc(-c4cc5cn(C)nc5c(O)n4)cc3O)nn2)C1 [Compound 53, 5-{4-[6-(1-ethylazetidin-3-yl)pyridazin-3-yl]-3-hydroxyphenyl}-2-methyl-2H-pyrazolo[3,4-c]pyridin-7-ol]	500 to 1000
Cc1cc2cc(-c3ccc(-c4ccc(C5CN(C)C5)nn4)c(O)c3)ccn2n1 [Compound 21, 2-[6-(1-methylazetidin-3-yl)pyridazin-3-yl]-5-{2-methylpyrazolo[1,5-a]pyridin-5-yl}phenol]	≥ 1000
CCN1CC(c2ccc(-c3ccc(-c4cc(C)n5nc(C)cc5c4)cc3O)nn2)C1 [Compound 41, 5-{2,7-dimethylpyrazolo[1,5-a]pyridin-5-yl}-2-[6-(1-ethylazetidin-3-yl)pyridazin-3-yl]phenol]	≥ 1000
Cc1cc2cc(-c3ccc(-c4ccc(C5CN(C6CCOCC6)C5)nn4)c(O)c3)ccn2n1 [Compound 192, 5-(2-methylpyrazolo[1,5-a]pyridin-5-yl)-2-(6-(1-(tetrahydro-2H-pyran-4-yl)azetidin-3-yl)pyridazin-3-yl)phenol 2,2,2-trifluoroacetate]	≥ 1000
Cc1cn2cc(-c3ccc(-c4ccc(C5CNC5)nn4)c(O)c3)cc(C)c2n1 [Compound 4, 2-(6-(azetidin-3-yl)pyridazin-3-yl)-5-(2,8-dimethylimidazo[1,2-a]pyridin-6-yl)phenol hydrochloride]	≥ 1000
CN1CC(c2ccc(-c3ccc(-c4ccc5nn(C)cc5c4)cc3O)nn2)C1 [Compound 19, 5-(2-methyl-2H-indazol-5-yl)-2-[6-(1-methylazetidin-3-yl)pyridazin-3-yl]phenol]	≥ 1000
Cc1cn2cc(-c3ccc(-c4ccc(C5CN(C)C5)nn4)c(O)c3)ncc2n1 [Compound 39, 2-[6-(1-methylazetidin-3-yl)pyridazin-3-yl]-5-{2-methylimidazo[1,2-a]pyrazin-6-yl}phenol]	50 to 500
